PubChem BioAssay AID1963965 (Molecular Pharmacology Branch, DTP, NCI, 2024)
“And” between values parts separate entries of the source, which are not always exact repeats. Identical values can stand only once.

Test system: 996289-038-R-J1-PDC spheroid viability
Assay: Anticancer human tumor 996289-038-R-J1-PDC patient-derived colon adenocarcinoma cell line growth inhibition [PI3K]
Settings: spheroids with HUVEC and MSC; for viability, T/C: stronger effect = lower value
Outline: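 High-throughput combination screen: PI3K inhibitors crossed with targeted small molecules on complex spheroids of tumor cells, HUVEC and MSCs at 37 degrees C, 5% CO2. Top concentration was at or near clinical Cmax (otherwise 10 microM), with half-log decrements.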

[1] = curve of first compound, second compound 0.0316 µM
[2] = curve of first compound, second compound 0.1 µM
[3] = curve of first compound, second compound 0.316 µM
[4] = curve of first compound, second compound 1 µM
[5] = curve of first compound, second compound 3.16 µM
[6] = curve of first compound, second compound 10 µM
[7] = second compound 0.0316 µM, first compound 0.0316 µM
[8] = second compound 0.0316 µM, first compound 0.1 µM
[9] = second compound 0.0316 µM, first compound 0.316 µM
[10] = second compound 0.0316 µM, first compound 1 µM
[11] = second compound 0.0316 µM, first compound 3.16 µM
[12] = second compound 0.0316 µM, first compound 10 µM
[13] = second compound 0.1 µM, first compound 0.0316 µM
[14] = second compound 0.1 µM, first compound 0.1 µM
[15] = second compound 0.1 µM, first compound 0.316 µM
[16] = second compound 0.1 µM, first compound 1 µM
[17] = second compound 0.1 µM, first compound 3.16 µM
[18] = second compound 0.1 µM, first compound 10 µM
[19] = second compound 0.316 µM, first compound 0.0316 µM
[20] = second compound 0.316 µM, first compound 0.1 µM
[21] = second compound 0.316 µM, first compound 0.316 µM
[22] = second compound 0.316 µM, first compound 1 µM
[23] = second compound 0.316 µM, first compound 3.16 µM
[24] = second compound 0.316 µM, first compound 10 µM
[25] = second compound 1 µM, first compound 0.0316 µM
[26] = second compound 1 µM, first compound 0.1 µM
[27] = second compound 1 µM, first compound 0.316 µM
[28] = second compound 1 µM, first compound 1 µM
[29] = second compound 1 µM, first compound 3.16 µM
[30] = second compound 1 µM, first compound 10 µM
[31] = second compound 3.16 µM, first compound 0.0316 µM
[32] = second compound 3.16 µM, first compound 0.1 µM
[33] = second compound 3.16 µM, first compound 0.316 µM
[34] = second compound 3.16 µM, first compound 1 µM
[35] = second compound 3.16 µM, first compound 3.16 µM
[36] = second compound 3.16 µM, first compound 10 µM
[37] = second compound 10 µM, first compound 0.0316 µM
[38] = second compound 10 µM, first compound 0.1 µM
[39] = second compound 10 µM, first compound 0.316 µM
[40] = second compound 10 µM, first compound 1 µM
[41] = second compound 10 µM, first compound 3.16 µM
[42] = second compound 10 µM, first compound 10 µM
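Note: spheroids exposed to compounds for seven days before viability read.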
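Throughout, for viability, T/C: luminescence used as a proxy for viable cell amount; percent viability relative to DMSO vehicle control as 100%.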

## Cn1ncc(Cl)c1-c1cc(C(=O)NC(CN)Cc2cccc(F)c2)sc1Cl (stereo not drawn) + Cc1nc(NC(=O)N2CCCC2C(N)=O)sc1-c1ccnc(C(C)(C)C(F)(F)F)c1
[1]
  IC50: 9.68 µM
[2]
  IC50: 4.61 µM
[3]
  IC50: 2.74 µM
[4]
  IC50: 1.39 µM
[5]
  IC50: 0.659 µM
[6]
  IC50: < 0.0316 µM
[7]
  viability, T/C: 76.9%
[8]
  viability, T/C: 91.2%
[9]
  viability, T/C: 78.2%
[10]
  viability, T/C: 63.9%
[11]
  viability, T/C: 60%
[12]
  viability, T/C: 47.6%
[13]
  viability, T/C: 89.2%
[14]
  viability, T/C: 80.3%
[15]
  viability, T/C: 78.5%
[16]
  viability, T/C: 56%
[17]
  viability, T/C: 55.9%
[18]
  viability, T/C: 45.1%
[19]
  viability, T/C: 75.2%
[20]
  viability, T/C: 87.5%
[21]
  viability, T/C: 67.1%
[22]
  viability, T/C: 58%
[23]
  viability, T/C: 51.9%
[24]
  viability, T/C: 31.5%
[25]
  viability, T/C: 82.4%
[26]
  viability, T/C: 71.8%
[27]
  viability, T/C: 63.4%
[28]
  viability, T/C: 53.9%
[29]
  viability, T/C: 42.4%
[30]
  viability, T/C: 31.7%
[31]
  viability, T/C: 61%
[32]
  viability, T/C: 63.6%
[33]
  viability, T/C: 59.2%
[34]
  viability, T/C: 43.4%
[35]
  viability, T/C: 34.5%
[36]
  viability, T/C: 24.9%
[37]
  viability, T/C: 34.8%
[38]
  viability, T/C: 36.4%
[39]
  viability, T/C: 41.6%
[40]
  viability, T/C: 35.5%
[41]
  viability, T/C: 27.3%
[42]
  viability, T/C: 16.2%

## CCCS(=O)(=O)Nc1ccc(F)c(C(=O)c2c[nH]c3ncc(-c4ccc(Cl)cc4)cc23)c1F + Cc1nc(NC(=O)N2CCCC2C(N)=O)sc1-c1ccnc(C(C)(C)C(F)(F)F)c1
[1]
  IC50: 5.9 µM
[2]
  IC50: 5.51 µM
[3]
  IC50: 5.54 µM
[4]
  IC50: 3.45 µM
[5]
  IC50: 1.52 µM
[6]
  IC50: 0.0316 µM
[7]
  viability, T/C: 90.2%
[8]
  viability, T/C: 86.1%
[9]
  viability, T/C: 108%
[10]
  viability, T/C: 96.1%
[11]
  viability, T/C: 82.6%
[12]
  viability, T/C: 22%
[13]
  viability, T/C: 95.9%
[14]
  viability, T/C: 87.7%
[15]
  viability, T/C: 91.6%
[16]
  viability, T/C: 88.3%
[17]
  viability, T/C: 79.5%
[18]
  viability, T/C: 18.5%
[19]
  viability, T/C: 84.2%
[20]
  viability, T/C: 84.8%
[21]
  viability, T/C: 80.2%
[22]
  viability, T/C: 81.3%
[23]
  viability, T/C: 70.5%
[24]
  viability, T/C: 28.3%
[25]
  viability, T/C: 70.4%
[26]
  viability, T/C: 79.6%
[27]
  viability, T/C: 70.5%
[28]
  viability, T/C: 66.7%
[29]
  viability, T/C: 53.1%
[30]
  viability, T/C: 17%
[31]
  viability, T/C: 61.1%
[32]
  viability, T/C: 63.5%
[33]
  viability, T/C: 57.3%
[34]
  viability, T/C: 54.1%
[35]
  viability, T/C: 43.2%
[36]
  viability, T/C: 15.4%
[37]
  viability, T/C: 44%
[38]
  viability, T/C: 44.8%
[39]
  viability, T/C: 43.3%
[40]
  viability, T/C: 53.2%
[41]
  viability, T/C: 31.9%
[42]
  viability, T/C: 11.5%

## CC(Cn1ccc(-c2ccc(C#N)c(Cl)c2)n1)NC(=O)c1cc(C(C)O)[nH]n1 (stereo not drawn)
Compound 0.0316 µM
  viability, T/C: 98.8% [middle of 4 runs]
Compound 0.1 µM
  viability, T/C: 104% (2×) and 86.4% and 92.5%
Compound 0.316 µM
  viability, T/C: 86.8% and 108% (2×) and 113%
Compound 1 µM
  viability, T/C: 108% [middle of 4 runs]
Compound 3.16 µM
  viability, T/C: 97.8% [middle of 4 runs]
Compound 10 µM
  viability, T/C: 101% [middle of 4 runs]
Curve of compound
  IC50: > 10 µM

## CCCS(=O)(=O)Nc1ccc(F)c(C(=O)c2c[nH]c3ncc(-c4ccc(Cl)cc4)cc23)c1F + CC(Nc1ncnc2nc[nH]c12)c1cc2cccc(Cl)c2c(=O)n1-c1ccccc1
[1]
  IC50: 6.51 µM
[2]
  IC50: 6.87 µM
[3]
  IC50: 6.7 µM
[4]
  IC50: 6.63 µM
[5]
  IC50: 6.55 µM
[6]
  IC50: 5.93 µM
[7]
  viability, T/C: 99.5%
[8]
  viability, T/C: 98.8%
[9]
  viability, T/C: 103%
[10]
  viability, T/C: 97.1%
[11]
  viability, T/C: 98.6%
[12]
  viability, T/C: 21.1%
[13]
  viability, T/C: 103%
[14]
  viability, T/C: 96.8%
[15]
  viability, T/C: 119%
[16]
  viability, T/C: 107%
[17]
  viability, T/C: 111%
[18]
  viability, T/C: 22.2%
[19]
  viability, T/C: 89.8%
[20]
  viability, T/C: 103%
[21]
  viability, T/C: 107%
[22]
  viability, T/C: 106%
[23]
  viability, T/C: 99.7%
[24]
  viability, T/C: 23.5%
[25]
  viability, T/C: 105%
[26]
  viability, T/C: 98.2%
[27]
  viability, T/C: 96.9%
[28]
  viability, T/C: 89%
[29]
  viability, T/C: 102%
[30]
  viability, T/C: 23.2%
[31]
  viability, T/C: 94.9%
[32]
  viability, T/C: 95.4%
[33]
  viability, T/C: 93.2%
[34]
  viability, T/C: 85.6%
[35]
  viability, T/C: 101%
[36]
  viability, T/C: 24.2%
[37]
  viability, T/C: 87%
[38]
  viability, T/C: 87.8%
[39]
  viability, T/C: 88.3%
[40]
  viability, T/C: 82.5%
[41]
  viability, T/C: 99.6%
[42]
  viability, T/C: 17.5%
